{"source": "paper PMC4253628", "about": "“Antiviral effects against EV71 of pimprinine and its derivatives isolated from Streptomyces sp” (Virology Journal, 2014)", "key": {"ADV-7 [1]": {"test_system": "ADV-7", "test": "Virus yield reduction assay, ADV-7", "format": "cell-based, adenovirus 7", "details": "Human mastadenovirus B; HeLa cells; read-out: EC90 ADV-7, concentration required to inhibit 90% virus yield"}, "CVB3 [2]": {"test_system": "CVB3", "test": "Inhibition of CVB3-induced CPE in Hep-2 cells", "description": "(§3) Cell viability was assessed by an MTT assay, which functions based on the reduction of a MTT into formazan dye by active mitochondria. The cells were treated with 100 μL of MTT (1 mg/mL, Sigma) and incubated at 37°C for 4 h. The reaction was blocked by DMSO and measured in a microplate reader (Bio-Tek Instruments) at 492 nm. The untreated control was arbitrarily set as 100%.\n(§4) Confluent cell monolayers in 96-well dishes were infected with 100 TCID50 of corresponding virus dilution mixed with serial dilutions of tested compounds for 1 h at 37°C. Inocula were aspirated and the cells were then incubated with various concentrations of DMEM/tested compounds at 37°C, 5% CO2 for 48 h. CPE were observed microscopically and the viability of the cells was determined using MTT assays. […] The concentrations required for the tested compounds to achieve 50% protection of cells from virus-induced CPE were determined."}, "HSV-1 [3]": {"test_system": "HSV-1", "test": "Plaque reduction assay, HSV-1 in Hep-2 cells", "description": "Confluent monolayers of Hep-2 cells, seeded in a 24-well plate, were infected with HSV-1 at a density of 60–80 plaque-forming units (PFU) per well and treated with media (pre-warmed DMEM containing 2% FBS, 0.8% low-melting agarose) mixed with or without the serially diluted tested compounds for the periods indicated following different procedures. The cells were incubated at 37°C until plaques appeared, followed by fixing with 10% formaldehyde and staining with 0.5% crystal violet. The plaques were counted by visual examination. The ratio of the number of plaques in the treated group to that in the untreated control was calculated.\nA plaque reduction assay was performed to measure the inhibitory effects of the test compounds against HSV-1 infection."}, "EV71 [4]": {"test_system": "EV71", "details": "EV71, RD cells", "description": "as §3, §4"}, "[5]": {"test": "Cytotoxicity, MTT method, Hep-2 cells", "format": "cell-based", "details": "human, uninfected Hep-2 cells; host cells of CVB3: Hep-2, MTT, 48 h; read-out: CC50 (CVB3)", "method": "(§1) The 50% cell cytotoxic concentrations (CC50s) of compounds were calculated using SPSS software. SI were calculated from the ratio of CC50: EC50."}, "EV71 [6]": {"test_system": "EV71", "test": "Dependence of anti-EV71 activity on virus inoculum (cell viability, MTT) in RD cells", "format": "cell-based, Enterovirus 71"}, "[7]": {"test": "Cytotoxicity, ATPLite luminescence-based assay, RD cells", "format": "cell-based", "details": "human", "source_text": "(§2) The ATPLite assay may be more sensitive to cytotoxicity than the MTT method. For RD and Hep-2 cells, similar results were obtained, and for HeLa and MDCK cells, the values of CC50 from the ATPLite assay were smaller than those from MTT assays (Tables 1, 2 and 3)."}, "[8]": {"test": "Cytotoxicity, ATPLite luminescence-based assay, HeLa cells", "format": "cell-based", "details": "human", "source_text": "as §2"}, "EV71 [9]": {"test_system": "EV71", "test": "Progeny virus yield reduction, EV71 in RD cells", "format": "cell-based, Enterovirus 71"}, "[10]": {"test": "Cytotoxicity, ATPLite luminescence-based assay, Hep-2 cells", "format": "cell-based", "details": "human", "source_text": "as §2"}, "HSV-1 [11]": {"test_system": "HSV-1", "test": "Virus yield reduction assay, HSV-1", "format": "cell-based, herpes simplex virus 1", "details": "Hep-2 cells; — = less than 90% inhibition"}, "CVB3 [12]": {"test_system": "CVB3", "test": "Virus yield reduction assay, CVB3", "format": "cell-based, Coxsackievirus B3", "details": "Hep-2 cells; — = less than 90% inhibition"}, "[13]": {"test": "Cytotoxicity, MTT method, MDCK cells", "format": "cell-based, canine", "details": "dog, uninfected MDCK cells, host cells of H1N1: MDCK", "method": "as §1"}, "[14]": {"design": "method as in PMID 11377760", "details": "in vivo, 80 mg/kg; cited from earlier work"}, "[15]": {"test": "Cytotoxicity, MTT method, HeLa cells", "format": "cell-based", "details": "human, uninfected HeLa cells; host cells of ADV-7: HeLa, MTT, 48 h; read-out: CC50 (ADV-7)", "method": "as §1"}, "H1N1 [16]": {"test_system": "H1N1", "test": "Virus yield reduction assay, H1N1", "format": "cell-based, influenza virus A/human/Hubei/86/2009 (H1N1)", "details": "MDCK cells; — = less than 90% inhibition", "method": "Virus yield reduction assays were also carried out to evaluate further the protective effects of the tested compounds.\nThe virus suspension, serially diluted 10-fold with DMEM containing 2% FBS, was inoculated to cells in a 96-well plate. After 1 h incubation at 37°C in 5% CO2, unbinding virus was washed out and DMEM maintenance medium supplemented with 2% FBS was added to the cells. After 2 days, the infected cells were monitored for cytopathic effects (CPEs). The virus titer was calculated by the Reed–Muench method."}, "EV71 [17]": {"test_system": "EV71", "test": "microbe, parasite or virus in culture", "details": "Enterovirus A, EV71, RD, 48 h, read-out: EC50, compound concentration required to achieve 50% protection from virus-induced cytopathogenicity", "description": "as §3, §4"}, "ADV-7 [18]": {"test_system": "ADV-7", "test": "Inhibition of ADV-7-induced CPE in HeLa cells", "description": "as §3, §4"}, "[19]": {"test": "Cytotoxicity, ATPLite luminescence-based assay, MDCK cells", "format": "cell-based, canine", "details": "dog", "source_text": "as §2"}, "H1N1 [20]": {"test_system": "H1N1", "test": "Inhibition of H1N1-induced CPE in MDCK cells", "format": "cell-based, influenza virus A/human/Hubei/86/2009 (H1N1)", "details": "MDCK cells"}, "[21]": {"test": "Cytotoxicity, MTT method, uninfected RD cells", "format": "cell-based", "details": "human; RD cells, MTT, 48 h; mean ± SD of three experiments; read-out: CC50, compound concentration required to reduce cell viability by 50%", "method": "as §1"}}}
{"compound": "Cc1ncc(-c2c[nH]c3ccccc23)o1", "note": "[Pimprinine, 5, 30-indolyl-2-methyloxazole]", "values": [{"measurement": "EC90", "setting": "ADV-7 [1]", "value": "266 ± 14", "unit": "µM"}, {"measurement": "EC50", "setting": "CVB3 [2]; Enterovirus B, CVB3, HEp-2, 48 h, read-out: EC50 CVB3", "value": "95 ± 16", "unit": "µM"}, {"measurement": "SI CVB3, ratio CC50/EC50", "setting": "CVB3 [2]; Hep-2 cells", "value": 5}, {"measurement": "SI HSV-1, ratio CC50/EC50", "setting": "HSV-1 [3]; Hep-2 cells", "value": 3}, {"measurement": "EC50", "setting": "HSV-1 [3]; Human alphaherpesvirus 1, HEp-2, read-out: EC50 HSV-1", "value": "160 ± 18", "unit": "µM"}, {"measurement": "SI (selectivity index), ratio CC50/EC50", "setting": "EV71 [4]", "value": 16}, {"measurement": "CC50 at 48 h", "setting": "[5]", "value": "443 ± 35", "unit": "µM"}, {"measurement": "viability at 10 µM", "setting": "EV71 [6]; Enterovirus A, 10 μM, 10^4 TCID50 EV71, 48 h pi", "value": 7, "unit": "%"}, {"measurement": "viability at 20 µM", "setting": "EV71 [6]; Enterovirus A, 20 μM, 10^4 TCID50 EV71, 48 h pi", "value": 19, "unit": "%"}, {"measurement": "viability at 40 µM", "setting": "EV71 [6]; Enterovirus A, 40 μM, 10^4 TCID50 EV71, 48 h pi", "value": 16, "unit": "%"}, {"measurement": "viability at 80 µM", "setting": "EV71 [6]; Enterovirus A, 80 μM, 10^4 TCID50 EV71, 48 h pi", "value": 22, "unit": "%"}, {"measurement": "viability at 160 µM", "setting": "EV71 [6]; Enterovirus A, 160 μM, 10^4 TCID50 EV71, 48 h pi", "value": 28, "unit": "%"}, {"measurement": "anti-EV71 inhibition at excessive virus inoculum", "setting": "EV71 [6]; virus concentration above 10^4 TCID50", "value": "no inhibition observed"}, {"measurement": "CC50", "setting": "[7]", "value": "1.26 ± 0.247", "unit": "mM"}, {"measurement": "CC50", "setting": "[8]", "value": "940 ± 219", "unit": "µM"}, {"measurement": "reduction in progeny virus titers relative to virus control", "setting": "EV71 [9]; 80 μM, 100 TCID50 EV71, RD cells, 10 h", "value": "approximately 0.5 log"}, {"measurement": "EC90", "setting": "EV71 [9]; Enterovirus A, EV71, RD cells, progeny viral yield, read-out: EC90, compound concentration required to achieve 90% virus yield reduction", "value": "149 ± 12", "unit": "µM"}, {"measurement": "CC50", "setting": "[10]", "value": "403 ± 53", "unit": "µM"}, {"measurement": "EC90 HSV-1, concentration required to inhibit 90% virus yield", "setting": "HSV-1 [11]", "value": "— (—, less than 50% or 90% inhibition)"}, {"measurement": "EC90 CVB3, concentration required to inhibit 90% virus yield", "setting": "CVB3 [12]", "value": "—^f (—, less than 50% or 90% inhibition)"}, {"measurement": "CC50 at 48 h", "setting": "[13]", "value": "899 ± 56", "unit": "µM"}, {"measurement": "protection against electrically induced convulsions", "setting": "[14]", "value": "significant protection"}, {"measurement": "CC50 at 48 h", "setting": "[15]", "value": "1.14 ± 0.181", "unit": "mM"}, {"measurement": "EC90 H1N1, concentration required to inhibit 90% virus yield", "setting": "H1N1 [16]", "value": "— (—, less than 50% or 90% inhibition)"}, {"measurement": "EC50", "setting": "EV71 [17]", "value": "89 ± 18", "unit": "µM"}, {"measurement": "SI ADV-7, ratio CC50/EC50", "setting": "ADV-7 [18]; HeLa cells", "value": 8}, {"measurement": "EC50", "setting": "ADV-7 [18]; Human mastadenovirus B, HeLa, 48 h, read-out: EC50 ADV-7", "value": "150 ± 10", "unit": "µM"}, {"measurement": "CC50", "setting": "[19]", "value": "649 ± 77", "unit": "µM"}, {"measurement": "inhibition of H1N1 infection", "setting": "H1N1 [20]", "value": "negligible measurable inhibition"}, {"measurement": "EC50 H1N1", "setting": "H1N1 [20]; 100 TCID50, 48 h, CPE, — = less than 50% inhibition", "value": "— (—, less than 50% or 90% inhibition)"}, {"measurement": "CC50 at 48 h", "setting": "[21]", "value": "1.45 ± 0.027", "unit": "mM"}]}
